Laboratory results as given in the supplement of paper PMC10307832.

Tests used:
Test in all cases: relative viability (nuclei count vs DMSO), 5 days (fraction); higher = more cells survive
[1] = compound: COc1cc(Nc2ncc(F)c(Nc3ccc4c(n3)NC(=O)C(C)(C)O4)n2)cc(OC)c1OC [R406] + Nc1ncn([C@H]2C[C@H](O)[C@@H](CO)O2)c(=O)n1 [Decitabine] (partner 2 µM)
Outline: (§1)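 One day after seeding in 1536-well plates, lung cancer cell lines were dosed by pin tool. Dosing was either single-drug or a fixed anchor-drug dose plus five library-drug doses (not always all listed) in √10 steps. After 5 days, nuclei were stained in one fix-and-stain step and counted on 4× images, and relative viability is the nuclei count of treated wells over that of vehicle wells, given as the median of duplicate plates.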

[2] = compound: COc1cc(Nc2ncc(F)c(Nc3ccc4c(n3)NC(=O)C(C)(C)O4)n2)cc(OC)c1OC [R406] + N=C(N)NC(=N)NCCc1ccccc1 [Phenformin] (partner 250 µM)
Outline: as §1

[3] = compound: COc1cc(Nc2ncc(F)c(Nc3ccc4c(n3)NC(=O)C(C)(C)O4)n2)cc(OC)c1OC [R406] + CC(=O)Nc1cccc(-n2c(=O)n(C3CC3)c(=O)c3c(Nc4ccc(I)cc4F)n(C)c(=O)c(C)c32)c1 [Trametinib] (partner 0.02 µM)
Outline: as §1

[4] = compound: O=C(/C=C/c1cccnc1)NCCCCC1CCN(C(=O)c2ccccc2)CC1 [Daporinad] + CC1(C)CCC(c2ccc(Cl)cc2)=C(CN2CCN(c3ccc(C(=O)NS(=O)(=O)c4ccc(N[C@H](CCN5CCOCC5)CSc5ccccc5)c(S(=O)(=O)C(F)(F)F)c4)cc3)CC2)C1 [Navitoclax] (partner 0.5 µM)
Outline: as §1

Cell Line	relative viability ([1]; first compound 0.08 µM)	relative viability ([1]; first compound 0.253 µM)	relative viability ([1]; first compound 0.8 µM)	relative viability ([1]; first compound 2.53 µM)	relative viability ([1]; first compound 8 µM)	relative viability ([2]; first compound 0.08 µM)	relative viability ([2]; first compound 0.253 µM)	relative viability ([2]; first compound 0.8 µM)	relative viability ([2]; first compound 2.53 µM)	relative viability ([2]; first compound 8 µM)	relative viability ([3]; first compound 0.08 µM)	relative viability ([3]; first compound 0.253 µM)	relative viability ([3]; first compound 0.8 µM)	relative viability ([3]; first compound 2.53 µM)	relative viability ([3]; first compound 8 µM)	relative viability ([4]; first compound 0.0005 µM)	relative viability ([4]; first compound 0.001581 µM)	relative viability ([4]; first compound 0.005 µM)	relative viability ([4]; first compound 0.01581 µM)
NCI-H522	0.726	0.688	0.762	0.587	0.616	0.595	0.595	0.619	0.553	0.583	0.779	0.917	0.787	0.746	0.599	–	–	–	–
HCC-15	0.636	0.788	0.687	0.603	0.389	0.467	0.606	0.595	0.445	0.234	0.392	0.385	0.406	0.415	0.331	0.661	0.776	0.716	0.764
A-427	0.583	0.626	0.717	0.514	0.571	0.382	0.335	0.316	0.171	0.134	0.755	0.745	0.857	0.62	0.541	0.964	1.04	0.722	0.691
NCI-H2228	–	–	–	–	–	0.318	0.383	0.312	0.106	0.0936	0.501	0.503	0.731	0.0769	0.432	1.05	1.1	1.09	0.945
NCI-H1734	0.521	0.524	0.551	0.404	0.399	0.374	0.483	0.407	0.257	0.202	0.637	0.685	0.715	0.575	0.383	0.845	0.96	0.903	0.601
NCI-H441	0.231	0.248	0.276	0.217	0.24	0.829	0.872	1.05	0.44	0.309	0.462	0.452	0.539	0.283	0.184	–	0.609	0.815	0.559
PC-3 [JPC-3]	0.912	0.898	0.974	0.747	0.62	0.466	0.515	0.526	0.413	0.377	0.801	0.738	0.81	0.669	0.475	0.763	0.796	0.827	0.789
NCI-H1915	0.258	0.298	0.265	0.293	0.278	0.359	0.388	0.404	–	0.278	0.324	0.334	0.313	0.268	0.197	0.805	0.739	0.765	0.809
NCI-H1666	0.672	0.792	0.637	0.936	0.74	0.542	0.576	0.59	0.616	0.476	0.901	0.866	0.943	0.955	0.679	0.957	1.05	0.861	0.796
HCC-366	0.317	0.372	0.36	0.344	0.112	0.627	0.622	0.721	0.521	0.254	0.342	0.411	0.42	0.234	0.0517	0.993	1.02	1.17	1.06
NCI-H2170	0.437	0.448	0.487	0.41	0.505	0.405	0.414	0.44	0.316	0.372	0.923	0.99	1.02	0.647	0.842	0.619	0.561	0.637	0.825
NCI-H727	0.919	1.16	0.854	0.872	0.847	0.529	0.644	0.622	–	0.423	0.416	0.344	0.453	0.406	0.372	0.409	0.568	0.483	0.29
RERF-LC-KJ	0.706	0.628	0.72	0.252	0.529	0.43	0.415	0.41	0.362	0.286	0.833	0.918	1	0.753	0.715	1.04	0.984	1.01	1.18
NCI-H2342	0.681	0.768	0.759	0.668	0.691	0.66	0.623	0.649	0.525	0.535	0.724	0.841	0.8	0.753	0.844	–	–	–	–
Calu-6	–	–	–	–	–	–	–	–	–	–	–	–	–	–	–	0.853	0.681	0.527	0.196
